This is an account of results in US20030113797A1, “Method for generating, screening and dereplicating natural product libraries for the discovery of therapeutic agents” (UNIGEN PHARMACEUTICALS, INC., priority 2001, published 2003).

For test [1], the system named is COX-1 and COX-2 recombinant enzymes. The note with it: major compound of fraction D3, Camellia sinensis aqueous extract; cited from earlier work.
The subject of test [2] is B16 F1 mouse melanoma cells. As to the kind of experiment: Inhibition of melanogenesis (alpha-MSH stimulated melanin formation). It is filed as cell-based. As to conditions: identified by dereplication of fractions D2 to D7. On the procedure: Inhibition of melanogenesis was determined by a modified method of Siegrist and Eberle (x). B16 F1 mouse melanoma cells (2.0×10^4 cells/mL) were subcultured in GibcoBRL Modified Eagle Medium (10% FBS, 1% Gibco non-essential amino acids, 1% PSG, 1.5% Gibco vitamin solution). After 3 days incubation (37° C., 5% CO2) cells were seeded (2500 cells/well, 200 μL) in 96 well sterile culture plates (Costar) and incubated overnight (37° C., 5% CO2). The next day, cell culture medium was replaced with 100 μL fresh medium. Extract samples were dissolved in DMSO at a concentration of 30 mg/mL and diluted 1:1000 in cell culture medium on separate, sterile, 96 well plates. […] Sample wells containing no α-MSH were used to determine sample absorbance at 450 nm unrelated to melanin pigment formation as control. […] The degree of melanin formation was determined at 450 nm in a 96 well plate reader. Percent inhibition of samples was determined by the formula: […]
Ac MSH+: Absorbance at 450 nm of cells containing no sample, with MSH
Ac MSH−: Absorbance at 450 nm of cells containing no sample, without MSH
As MSH+: Absorbance at 450 nm of cells containing sample, with MSH
As MSH−: Absorbance at 450 nm of cells containing sample, without MSH

The structures appear in SMILES notation.

`O=C(O[C@@H]1Cc2c(O)cc(O)cc2O[C@@H]1c1cc(O)c(O)c(O)c1)c1cc(O)c(O)c(O)c1` [Epigallocatechin Gallate (EGCG), Epigallocatechin Gallate]: in test [1], the “COX inhibitor (known activity)” value is “well known COX inhibitor”. For `O=C(OC1C(CO)OC(O)C2OC(=O)c3cc(O)c(O)c(O)c3-c3c(cc(O)c(O)c3O)C(=O)OC21)c1cc(O)c(O)c(O)c1` (centres unmarked) [Pterocaryanin B], the “Inhibition of melanin synthesis” value in test [2] is listed as “inhibition of melanin synthesis”.
